Key:
crabgrass = assay: Test B pre/postemergence crabgrass; format: in vivo, Digitaria sanguinalis
Outline: (§1)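 Response is a visual 0-to-10 score relative to untreated plants, where 0 means no effect and 10 means complete control, taken twelve to sixteen days after application. Treatments went onto soil at planting and onto foliage of 1- to 4-leaf plants, using a surfactant-containing non-phytotoxic solvent.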

purple nutsedge = assay: Test B pre/postemergence purple nutsedge; format: in vivo, Cyperus rotundus
Outline: as §1

duck salad = assay: Test B flood test duck salad; format: in vivo, Heteranthera limosa
Outline: (§2)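 Each value is a visual injury score relative to controls, with 10 meaning complete control and 0 no effect. Evaluation took place twelve to sixteen days after the 2-leaf-stage plants were treated and kept in the greenhouse.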

bamyardgrass = assay: Test B flood test barnyardgrass; format: in vivo, Echinochloa crus-galli
Outline: as §2

winter wheat [1] = assay: Test E winter wheat; format: in vivo, Triticum aestivum; conditions: Postemergence
Outline: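 For postemergence, plants at the 1- to 4-leaf stage, in a 60:40 mix of sandy loam and potting mix, treated with compound formulated in a surfactant-containing non-phytotoxic solvent. Visual assessment versus untreated controls followed roughly 21–28 days in the greenhouse.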

blackgrass = assay: Test E blackgrass; format: in vivo, Alopecurus myosuroides; conditions: Preemergence
green foxtail = assay: Test E green foxtail; format: in vivo, Setaria viridis; conditions: Preemergence
Italian ryegrass = assay: Test E Italian ryegrass; format: in vivo, Lolium multiflorum; conditions: Preemergence
winter wheat [2] = assay: Test E winter wheat; format: in vivo, Triticum aestivum; conditions: Preemergence
wild oat = assay: Test E wild oat; format: in vivo, Avena fatua; conditions: Preemergence
winter barley = assay: Test E winter barley; format: in vivo, Hordeum vulgare; conditions: Preemergence
[3] = Postemergence, Rate 62 g/ha, scale 0 to 10, 0 is no effect, 10 is complete control
[4] = Postemergence, Rate 125 g/ha, scale of 0 to 10 where 0 is no effect and 10 is complete control
[5] = Postemergence, Rate 250 g/ha, scale 0 to 10, 0 no effect, 10 complete control
[6] = Preemergence, Rate 31 g/ha, visual rating, scale 0 to 10 (0 no effect, 10 complete control)
[7] = Preemergence, Rate 62 g/ha, scale 0 to 10 (0 no effect, 10 complete control)
[8] = Preemergence, Rate 125 g/ha, scale 0 to 10 (0 no effect, 10 complete control)
[9] = Preemergence, Rate 250 g/ha, scale of 0 to 10 where 0 is no effect and 10 is complete control
[10] = Rate 31 g/ha, Postemergence, scale 0 to 10
[11] = Rate 31 g/ha, Postemergence section (flood test species), scale 0 to 10
[12] = flood test, listed under Postemergence, Rate 250 g/ha, scale 0 to 10, 0 no effect, 10 complete control
[13] = Rate 500 g/ha, 0 to 100 scale, 0 no effect, 100 complete control
[14] = Rate 125 g/ha, 0 to 100 scale (0 no effect, 100 complete control)
[15] = Rate 500 g/ha, 0 to 100 scale where 0 is no effect and 100 is complete control
[16] = Preemergence, Rate 62 g/ha, scale of 0 to 10 where 0 is no effect and 10 is complete control
[17] = Preemergence, Rate 125 g/ha, 0 is no effect, 10 is complete control
[18] = Preemergence, Rate 250 g/ha, scale 0 to 10, 0 is no effect, 10 is complete control
[19] = Preemergence, Rate 500 g/ha, scale 0 to 10 (0 no effect, 10 complete control)
[20] = Rate 62 g/ha, Postemergence, scale of 0 to 10 where 0 is no effect and 10 is complete control
[21] = Rate 250 g/ha, Postemergence, scale 0 to 10, 0 is no effect, 10 is complete control
[22] = Rate 500 g/ha, Postemergence, scale 0 to 10
[23] = Rate 1000 g/ha, 0 to 100 scale where 0 is no effect and 100 is complete control

CC(C)N(C(=O)n1oc(=O)n(-c2cnn(C)c2)c1=O)c1ccc(F)cc1 [Compound 98]
Crabgrass plant response rating (crabgrass; [3]): 0
Crabgrass plant response rating (crabgrass; [4]): 0
Crabgrass plant response rating (crabgrass; [5]): 2
Crabgrass plant response rating (crabgrass; [6]): 2
Crabgrass plant response rating (crabgrass; [7]): 4
Plant response rating, Crabgrass (crabgrass; [8]): 7
Plant response rating, Crabgrass (crabgrass; [9]): 8
Crabgrass plant response rating (crabgrass; [10]): 0
Nutsedge plant response rating (purple nutsedge; [3]): 0
Nutsedge plant response rating (purple nutsedge; [4]): 0
Nutsedge plant response rating (purple nutsedge; [5]): 0
Nutsedge plant response rating (purple nutsedge; [6]): 0
Nutsedge plant response rating (purple nutsedge; [7]): 0
Plant response rating, Nutsedge (purple nutsedge; [8]): 0
Plant response rating, Nutsedge (purple nutsedge; [9]): 0
Nutsedge plant response rating (purple nutsedge; [10]): 0
Ducksalad plant response rating (duck salad; Postemergence (flood test species), Rate 125 g/ha, scale of 0 to 10 where 0 is no effect and 10 is complete control): 2
Ducksalad plant response rating (duck salad; [3]): 0
Ducksalad plant response rating (duck salad; [11]): 0
Ducksalad plant response rating (duck salad; [12]): 3
Barnyardgrass plant response rating (bamyardgrass; [3]): 5
Barnyardgrass plant response rating (bamyardgrass; [11]): 3
Barnyardgrass plant response rating (bamyardgrass; Rate 125 g/ha, Postemergence section (flood test species), scale 0 to 10, 0 no effect, 10 complete control): 9
Barnyardgrass plant response rating (bamyardgrass; [12]): 9
Plant response rating, Wheat (winter) (winter wheat [1]; Rate 125 g/ha, 0 to 100 scale): 30
Plant response rating, Wheat (winter) (winter wheat [1]; Rate 250 g/ha, 0 to 100 scale (0 no effect, 100 complete control)): 50
Plant response rating, Wheat (winter) (winter wheat [1]; [13]): 55
Plant response rating, Blackgrass (blackgrass; [14]): 30
Plant response rating, Blackgrass (blackgrass; Rate 250 g/ha, 0 to 100 scale): 20
Plant response rating, Blackgrass (blackgrass; [15]): 55
Plant response rating, Green foxtail (green foxtail; [14]): 60
Plant response rating, Green foxtail (green foxtail; Rate 250 g/ha, 0 to 100 scale): 60
Plant response rating, Green foxtail (green foxtail; [15]): 65
Plant response rating, I. Ryegrass (Italian ryegrass; [14]): 50
Plant response rating, I. Ryegrass (Italian ryegrass; Rate 250 g/ha, 0 to 100 scale): 50
Plant response rating, I. Ryegrass (Italian ryegrass; [15]): 60
Plant response rating, Wheat (winter) (winter wheat [2]; [14]): 30
Plant response rating, Wheat (winter) (winter wheat [2]; Rate 250 g/ha, 0 to 100 scale): 40
Plant response rating, Wheat (winter) (winter wheat [2]; [15]): 40
Plant response rating, Wild oat (wild oat; [14]): 50
Plant response rating, Wild oat (wild oat; [15]): 50
Plant response rating, Barley (winter) (winter barley; [14]): 20
Plant response rating, Barley (winter) (winter barley; Rate 250 g/ha, 0 to 100 scale): 10
Plant response rating, Barley (winter) (winter barley; [15]): 30

CC1CCCCC1n1c(=O)on(C(=O)N(c2ccc(F)cc2)C(C)C)c1=O (stereo not drawn) [Compound 161]
Crabgrass plant response rating (crabgrass; [4]): 2
Crabgrass plant response rating (crabgrass; [16]): 4
Crabgrass plant response rating (0 to 10 scale) (crabgrass; [17]): 8
Crabgrass plant response rating (crabgrass; [18]): 9
Crabgrass plant response rating (crabgrass; [19]): 9
Crabgrass plant response rating (crabgrass; [20]): 0
Plant response rating, Crabgrass (crabgrass; [21]): 7
Crabgrass plant response rating (crabgrass; [22]): 9
Nutsedge plant response rating (purple nutsedge; [4]): 0
Nutsedge plant response rating (purple nutsedge; [16]): 0
Nutsedge plant response rating (0 to 10 scale) (purple nutsedge; [17]): 0
Nutsedge plant response rating (purple nutsedge; [18]): 0
Nutsedge plant response rating (purple nutsedge; [19]): 0
Nutsedge plant response rating (purple nutsedge; [20]): 0
Plant response rating, Nutsedge (purple nutsedge; [21]): 0
Nutsedge plant response rating (purple nutsedge; [22]): 0
Plant response rating, Wheat (winter) (winter wheat [1]; Rate 1000 g/ha, 0 to 100 scale, 0 is no effect and 100 is complete control): 50
Plant response rating, Wheat (winter) (winter wheat [1]; [13]): 35
Wheat (winter) plant response rating (winter wheat [1]; Rate 250 g/ha, 0 to 100 scale where 0 is no effect and 100 is complete control): 30
Blackgrass plant response rating (0 to 100 scale) (blackgrass; Rate 250 g/ha): 30
Plant response rating, Blackgrass (blackgrass; [15]): 50
Plant response rating, Blackgrass (blackgrass; [23]): 55
Green foxtail plant response rating (0 to 100 scale) (green foxtail; Rate 250 g/ha): 60
Plant response rating, Green foxtail (green foxtail; [15]): 70
Plant response rating, Green foxtail (green foxtail; [23]): 90
I. Ryegrass plant response rating (0 to 100 scale) (Italian ryegrass; Rate 250 g/ha): 60
Plant response rating, I. Ryegrass (Italian ryegrass; [15]): 65
Plant response rating, I. Ryegrass (Italian ryegrass; [23]): 85
Wheat (winter) plant response rating (0 to 100 scale) (winter wheat [2]; Rate 250 g/ha): 10
Plant response rating, Wheat (winter) (winter wheat [2]; [15]): 20
Plant response rating, Wheat (winter) (winter wheat [2]; [23]): 45
Wild oat plant response rating (0 to 100 scale) (wild oat; Rate 250 g/ha): 50
Plant response rating, Wild oat (wild oat; [15]): 50
Plant response rating, Wild oat (wild oat; [23]): 60
Barley (winter) plant response rating (0 to 100 scale) (winter barley; Rate 250 g/ha): 30
Plant response rating, Barley (winter) (winter barley; [15]): 40
Plant response rating, Barley (winter) (winter barley; [23]): 40
